# Reference: paper PMC4226674, “A phase I trial of the HIV protease inhibitor nelfinavir in adults with solid tumors” (Oncotarget, 2014)
# Several values for one entry are separate records, joined by “and”; a condition that tells them apart may be missing. Identical values can stand only once.
# Tests used:
# P-EIF2 alpha S51 = assay: ER stress marker P-EIF2 alpha in PBMCs by immunoblotting; type: in vivo, human; conditions: DL4 (3125 mg bid), after 7 or 42 days; printed as 'the same percentage'
# Protocol: (§1) Peripheral blood mononuclear cells (PBMCs) were collected at baseline, and then twice after starting nelfinavir: cycle 1 day 7 and cycle 1 day 42. Levels of P-AKT S473, P-EIF2 alpha S51, ATF3 and CHOP in PBMCs before and after nelfinavir were analyzed by immunoblotting. Blood was collected in Vacutainer CPT collection tubes with sodium heparin (BD Biosciences cat# 362753) and mononuclear cells were isolated as per the manufacturer's instructions. PBMCs were washed with PBS and lysed in 2X LSB buffer [33], aliquotted and stored at -80°C. For analysis, equal amounts of protein per sample were run on 10-12% SDS-PAGE gels, then transferred onto nitrocellulose membranes. Membranes were blocked in 5% milk in TBS + 0.1% tween (TBST) and incubated with primary antibody diluted in 5% BSA in TBST at 4 degrees overnight. The next day membranes were washed, incubated with HRP-linked secondary antibody and developed using ECL chemiluminescent reagent (GE Healthcare) and X-ray film as per the manufacturers instructions. The amount of P-AKT S473, P-EIF2 alpha S51, ATF3 or CHOP in the PBMCs at C1D7 and C1D42 were compared against a baseline sample for each patient, (prior to receiving nelfinavir). Antibodies against P-AKT S473 #4060, P-EIF2 alpha S51 #3398 and β-Actin #4970 were from Cell Signaling Technology (Danvers, MA). […]
# CYP3A4 = molecular target: T1, CYP3A4 (Homo sapiens, UniProt P08684); assay: CYP3A4 phenotyping with oral midazolam before and at nelfinavir steady state; type: in vivo
# T1 construct: To determine CYP3A4 phenotype, a single 3 mg oral dose of midazolam hydrochloride, a CYP3A4 substrate, was administered; from tissue; host or cells: in vivo, the patients' own (hepatic/intestinal) enzyme
# Protocol: To determine CYP3A4 phenotype, a single 3 mg oral dose of midazolam hydrochloride, a CYP3A4 substrate, was administered at day -2 (2 days prior to commencing nelfinavir) and again at steady state (cycle 1 day 20). Serial venous blood samples were collected at 15, 30, 60, 120, 180, 240, and 300 minutes following administration of midazolam. […] Plasma concentrations of midazolam and nelfinavir were determined with a validated assay employing high performance liquid chromatography (HPLC) with mass spectrometric detection. Noncompartmental pharmacokinetic analyses were performed with WinNonlin 5.2 (Pharsight). Individual concentration-time profiles were constructed for each patient, course and drug resulting in four profiles per patient (two each for midazolam and nelfinavir). The maximum plasma concentration (Cmax) and the time of maximum plasma concentration (Tmax) were the observed values. Drug exposure was estimated using the area under the concentration-time curve (AUC). The area under the concentration-time curve (AUC) from time zero to the time of the final quantifiable sample (AUClast) was calculated using the linear trapezoidal method. The area under the concentration-time curve from time zero to infinity (AUCinf) was calculated by extrapolation, using the terminal rate constant from the last measurable concentration.
# ATF3 and/or CHOP = assay: ER stress markers ATF3/CHOP in PBMCs by immunoblotting; type: in vivo, human; conditions: DL4 (3125 mg bid)
# Protocol: as §1
# [1] = test system: advanced refractory solid tumors; assay: Tumor response by RECIST and duration of therapy
# Protocol: Physical examinations, toxicity assessments and laboratory analyses were conducted weekly during cycle 1 and then every three weeks beginning cycle 2. An electrocardiogram was performed every cycle, and restaging scans were performed at baseline and every two cycles thereafter. Subjects remained on study until disease progression (as determined by RECIST), severe toxicity, or individual choice.
# Tumor response was assessed according to Response Evaluation Criteria in Solid Tumors (RECIST) [34] every two cycles.
# T1 sequence (P08684 whole entry): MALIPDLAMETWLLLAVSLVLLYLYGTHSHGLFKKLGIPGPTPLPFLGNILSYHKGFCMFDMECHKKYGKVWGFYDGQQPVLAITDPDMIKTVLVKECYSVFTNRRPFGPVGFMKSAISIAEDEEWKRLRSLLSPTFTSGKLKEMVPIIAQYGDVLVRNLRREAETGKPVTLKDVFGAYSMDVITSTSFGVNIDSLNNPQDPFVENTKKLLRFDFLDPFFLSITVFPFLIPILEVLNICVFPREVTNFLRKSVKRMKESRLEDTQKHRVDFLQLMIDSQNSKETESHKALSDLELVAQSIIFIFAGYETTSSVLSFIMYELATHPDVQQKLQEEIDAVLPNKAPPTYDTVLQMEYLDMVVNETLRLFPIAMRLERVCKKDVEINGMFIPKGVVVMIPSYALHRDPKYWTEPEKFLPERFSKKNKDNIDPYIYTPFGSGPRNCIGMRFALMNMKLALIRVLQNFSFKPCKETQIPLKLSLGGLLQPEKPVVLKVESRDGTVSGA
smiles,measurement,setting,value
"Cc1c(O)cccc1C(=O)N[C@@H](CSc1ccccc1)[C@H](O)CN1C[C@H]2CCCC[C@H]2C[C@H]1C(=O)NC(C)(C)C [nelfinavir, Nelfinavir]",subject PBMCs showing an increase in P-EIF2 alpha S51,P-EIF2 alpha S51,45%
same,change in midazolam clearance,"CYP3A4; day 20 (nelfinavir steady state) vs pre-nelfinavir (D-2), 3 mg oral midazolam, 19 subjects, p<0.001",significant decrease
same,change in midazolam exposure and half-life,"CYP3A4; day 20 vs pre-nelfinavir, p<0.05 for each, data not shown",significant increase
same,samples showing an increase in ATF3 and/or CHOP,ATF3 and/or CHOP,27%
same,"time on study, two of the subjects with NET of the midgut",[1]; 3125 mg BID,at least 8 months
same,subjects remaining on study for 8 months or more,"[1]; 3125 mg BID MTD, progressed prior to study entry (four subjects)",36%
same,ORR (confirmed partial response) at the MTD,"[1]; 3125 mg bid expansion cohort, 11 evaluable subjects",9% and 9.1%
same,ORR in the overall population,"[1]; 21 evaluable subjects, all dose levels",4.8%
same,minor responses in subjects with neuroendocrine tumors,"[1]; NET of the midgut or pancreatic origin, MTD",two
same,subjects with stable disease for more than 6 months,[1]; expansion cohort at the MTD,Thirty-six
same,"levels of circulating chromogranin, synaptophysin, and/or urinary 5-HIAA",[1]; responders with NET and carcinoid syndrome,transient decreases
same,time to improvement of carcinoid syndrome symptoms (flushing and diarrhea),[1]; responders with NET that had carcinoid syndrome,≤ 7 days
same,Duration of therapy,"[1]; subject 1, SCLC, 1250 mg BID",1.4 mos.
same,Duration of therapy,"[1]; subject 3, SCLC, 1250 mg BID",1.4 mos.
same,Duration of therapy,"[1]; subject 4, SCLC, 1250 mg BID",1.4 mos.
same,Duration of therapy,"[1]; subject 5, Anaplastic Thyroid, 1875 mg BID",1.4 mos.
same,Duration of therapy,"[1]; subject 7, Differentiated Thyroid, 1875 mg BID",2.8 mos.
same,Duration of therapy,"[1]; subject 8, NSCLC, 1875 mg BID",3.5 mos.
same,Duration of therapy,"[1]; subject 9, Colorectal, 2500 mg BID",1.4 mos.
same,Duration of therapy,"[1]; subject 10, Pancreatic Adenocarcinoma, 2500 mg BID",2.8 mos.
same,Duration of therapy,"[1]; subject 11, NSCLC, 2500 mg BID",4.1 mos.
same,Duration of therapy,"[1]; subject 12, Differentiated thyroid, 3125 mg BID",2.1 mos.
same,Duration of therapy,"[1]; subject 14, Renal Cell Cancer, 3125 mg BID",1.4 mos.
same,Duration of therapy,"[1]; subject 17, Adenoid Cystic, 3125 mg BID",11 mos. and 11.0 mos.
same,Duration of therapy,"[1]; subject 18, Neuroendocrine tumor, 3125 mg BID",8.3 mos.
same,Duration of therapy,"[1]; subject 19, Colorectal, 3125 mg BID",4.1 mos.
same,Duration of therapy,"[1]; subject 21, Adenoid Cystic, 3750 mg BID",1.4 mos.
same,Duration of therapy,"[1]; subject 23, Prostate, 3125 mg BID",1.0 mos.
same,Duration of therapy,"[1]; subject 24, SCLC, 3125 mg BID",2.8 mos.
same,Duration of therapy,"[1]; subject 25, Colorectal, 3125 mg BID",2.8 mos.
same,Duration of therapy,"[1]; subject 26, Neuroendocrine tumor, 3125 mg BID",12.4 mos.
same,Duration of therapy,"[1]; subject 27, Neuroendocrine tumor, 3125 mg BID",3.5 mos.
same,Duration of therapy,"[1]; subject 28, Neuroendocrine tumor (midgut, carcinoid syndrome), 3125 mg BID",23.5 mos.
same,additional time on nelfinavir off study with stable disease,"[1]; subject that achieved a PR, NET of the midgut",six
